Measured values reported in the NIST ThermoML archive (doi:10.1016/j.fluid.2014.05.032).

Test: xn = mol fraction of the nth substance listed
Settings: Liquid, Constant-volume piezometry

CCO [ethanol] + O
Settings	mass density [kg/m3]
292.95 K, 2450 kPa, x1 = 0.073	974.2
292.95 K, 11320 kPa, x1 = 0.073	977.6
292.95 K, 21120 kPa, x1 = 0.073	981.2
292.95 K, 30930 kPa, x1 = 0.073	985
292.95 K, 39230 kPa, x1 = 0.073	988
297.05 K, 2490 kPa, x1 = 0.0163	990.8
297.05 K, 11280 kPa, x1 = 0.0163	993.5
297.05 K, 21070 kPa, x1 = 0.0163	997.5
297.05 K, 30810 kPa, x1 = 0.0163	1003.2
297.05 K, 39170 kPa, x1 = 0.0163	1006.1
298.15 K, 2560 kPa, x1 = 0.0946	965.8
298.15 K, 10120 kPa, x1 = 0.0946	968.6
298.15 K, 20060 kPa, x1 = 0.0946	972.4
298.15 K, 29980 kPa, x1 = 0.0946	976.1
298.15 K, 40030 kPa, x1 = 0.0946	979.8
298.35 K, 2590 kPa, x1 = 0.0343	984.1
298.35 K, 11280 kPa, x1 = 0.0343	987.9
298.35 K, 21300 kPa, x1 = 0.0343	991.9
298.35 K, 31040 kPa, x1 = 0.0343	995.7
298.35 K, 39150 kPa, x1 = 0.0343	998.6
323.15 K, 2570 kPa, x1 = 0.0163	980.6
323.15 K, 2610 kPa, x1 = 0.073	959.3
323.15 K, 2730 kPa, x1 = 0.0946	951.3
323.15 K, 10940 kPa, x1 = 0.073	962.8
323.15 K, 11140 kPa, x1 = 0.0946	954.9
323.15 K, 11390 kPa, x1 = 0.0163	984.4
323.15 K, 20710 kPa, x1 = 0.0946	958.8
323.15 K, 20790 kPa, x1 = 0.073	966.7
323.15 K, 21080 kPa, x1 = 0.0163	988.4
323.15 K, 30360 kPa, x1 = 0.073	970.6
323.15 K, 30890 kPa, x1 = 0.0163	992.3
323.15 K, 32400 kPa, x1 = 0.0946	963.3
323.15 K, 38480 kPa, x1 = 0.0163	995.2
323.15 K, 38600 kPa, x1 = 0.073	973.6
323.15 K, 39810 kPa, x1 = 0.0946	966.2
323.65 K, 2610 kPa, x1 = 0.0343	973.6
323.65 K, 11320 kPa, x1 = 0.0343	977.4
323.65 K, 21200 kPa, x1 = 0.0343	981.4
323.65 K, 30930 kPa, x1 = 0.0343	985.2
323.65 K, 39010 kPa, x1 = 0.0343	988.2
348.15 K, 2730 kPa, x1 = 0.0946	933.7
348.15 K, 3220 kPa, x1 = 0.0163	967.1
348.15 K, 3260 kPa, x1 = 0.0343	959.9
348.15 K, 3330 kPa, x1 = 0.073	943
348.15 K, 10980 kPa, x1 = 0.0163	970.6
348.15 K, 11060 kPa, x1 = 0.073	946.6
348.15 K, 11390 kPa, x1 = 0.0946	937.4
348.15 K, 11590 kPa, x1 = 0.0343	963.5
348.15 K, 20750 kPa, x1 = 0.0163	974.7
348.15 K, 20870 kPa, x1 = 0.073	950.8
348.15 K, 20870 kPa, x1 = 0.0946	941.6
348.15 K, 21160 kPa, x1 = 0.0343	967.5
348.15 K, 29500 kPa, x1 = 0.0163	978.3
348.15 K, 29730 kPa, x1 = 0.0946	945.4
348.15 K, 30400 kPa, x1 = 0.073	955
348.15 K, 30850 kPa, x1 = 0.0343	971.3
348.15 K, 37790 kPa, x1 = 0.0946	948.7
348.15 K, 39600 kPa, x1 = 0.073	958.9
348.15 K, 39860 kPa, x1 = 0.0343	974.7
348.15 K, 39910 kPa, x1 = 0.0163	982.3
373.15 K, 3330 kPa, x1 = 0.0946	908.6
373.15 K, 3370 kPa, x1 = 0.0163	950.2
373.15 K, 3390 kPa, x1 = 0.0343	942.1
373.15 K, 3510 kPa, x1 = 0.073	923.9
373.15 K, 11320 kPa, x1 = 0.0163	953.8
373.15 K, 11320 kPa, x1 = 0.073	927.7
373.15 K, 11390 kPa, x1 = 0.0946	912.8
373.15 K, 11470 kPa, x1 = 0.0343	945.9
373.15 K, 21080 kPa, x1 = 0.073	932.5
373.15 K, 21120 kPa, x1 = 0.0343	950.3
373.15 K, 21160 kPa, x1 = 0.0163	958.3
373.15 K, 21200 kPa, x1 = 0.0946	917.7
373.15 K, 30520 kPa, x1 = 0.0343	954.5
373.15 K, 30600 kPa, x1 = 0.0163	962.5
373.15 K, 30670 kPa, x1 = 0.073	937
373.15 K, 30850 kPa, x1 = 0.0946	922.3
373.15 K, 35700 kPa, x1 = 0.0163	964.6
373.15 K, 37230 kPa, x1 = 0.073	939.9
373.15 K, 39000 kPa, x1 = 0.0343	957.9
373.15 K, 39410 kPa, x1 = 0.0946	927.3
398.15 K, 3510 kPa, x1 = 0.0946	885.8
398.15 K, 3550 kPa, x1 = 0.0343	921.6
398.15 K, 3710 kPa, x1 = 0.0163	930.3
398.15 K, 3710 kPa, x1 = 0.073	901.9
398.15 K, 11430 kPa, x1 = 0.0946	890.4
398.15 K, 11510 kPa, x1 = 0.073	906.2
398.15 K, 11630 kPa, x1 = 0.0163	934.4
398.15 K, 11730 kPa, x1 = 0.0343	925.8
398.15 K, 21160 kPa, x1 = 0.073	911.4
398.15 K, 21200 kPa, x1 = 0.0946	896
398.15 K, 21360 kPa, x1 = 0.0163	939.3
398.15 K, 21530 kPa, x1 = 0.0343	930.7
398.15 K, 30790 kPa, x1 = 0.0163	943.7
398.15 K, 30790 kPa, x1 = 0.073	916.3
398.15 K, 30850 kPa, x1 = 0.0946	901.1
398.15 K, 30930 kPa, x1 = 0.0343	935.2
398.15 K, 37300 kPa, x1 = 0.0343	938.3
398.15 K, 39500 kPa, x1 = 0.073	920.7
398.15 K, 39610 kPa, x1 = 0.0946	905.3
398.15 K, 39890 kPa, x1 = 0.0163	948
423.15 K, 2680 kPa, x1 = 0.0163	906.7
423.15 K, 2680 kPa, x1 = 0.0343	897.3
423.15 K, 2750 kPa, x1 = 0.0946	860.1
423.15 K, 2760 kPa, x1 = 0.073	875.9
423.15 K, 10050 kPa, x1 = 0.0946	863.9
423.15 K, 10170 kPa, x1 = 0.0163	911
423.15 K, 10240 kPa, x1 = 0.0343	901.8
423.15 K, 10710 kPa, x1 = 0.073	881.1
423.15 K, 20110 kPa, x1 = 0.073	887.1
423.15 K, 20200 kPa, x1 = 0.0946	869.5
423.15 K, 20970 kPa, x1 = 0.0163	917
423.15 K, 21070 kPa, x1 = 0.0343	908.1
423.15 K, 30100 kPa, x1 = 0.0946	875.5
423.15 K, 30490 kPa, x1 = 0.073	893
423.15 K, 30570 kPa, x1 = 0.0163	922.4
423.15 K, 30640 kPa, x1 = 0.0343	913.4
423.15 K, 39560 kPa, x1 = 0.0163	927.2
423.15 K, 39680 kPa, x1 = 0.0343	918.2
423.15 K, 39860 kPa, x1 = 0.0946	882.2
423.15 K, 40110 kPa, x1 = 0.073	898.6
448.15 K, 3860 kPa, x1 = 0.0946	831.7
448.15 K, 3960 kPa, x1 = 0.0163	882.3
448.15 K, 4000 kPa, x1 = 0.073	849.3
448.15 K, 4080 kPa, x1 = 0.0343	872.1
448.15 K, 11550 kPa, x1 = 0.0946	837.9
448.15 K, 11920 kPa, x1 = 0.0163	887.5
448.15 K, 11960 kPa, x1 = 0.0343	877.7
448.15 K, 12160 kPa, x1 = 0.073	855.6
448.15 K, 21530 kPa, x1 = 0.0163	893.7
448.15 K, 21690 kPa, x1 = 0.073	862.7
448.15 K, 21690 kPa, x1 = 0.0946	845.8
448.15 K, 22180 kPa, x1 = 0.0343	884.2
448.15 K, 30990 kPa, x1 = 0.0946	852.6
448.15 K, 31010 kPa, x1 = 0.0343	889.8
448.15 K, 31050 kPa, x1 = 0.0163	899.4
448.15 K, 31170 kPa, x1 = 0.073	869.2
448.15 K, 37210 kPa, x1 = 0.073	873
448.15 K, 38340 kPa, x1 = 0.0163	903.5
448.15 K, 40060 kPa, x1 = 0.0343	894.8
448.15 K, 40140 kPa, x1 = 0.0946	858.6
